Data: article PMC5057104, “The unravelling of the complex pattern of tyrosinase inhibition” (Scientific Reports, 2016)
“And” between values parts separate entries of the source, which are not always exact repeats. Equal values may be shown once. “Also recorded” adds a separate entry of the source. Read-outs that look alike come from different tables or passages of the source.

Key:
[1] = target: T1, TyrBm (tyrosinase from Bacillus megaterium) (Priestia megaterium, UniProt B2ZB02); assay: biochemical; type: binding; parameters: made in house; host or cells: Escherichia coli BL21
T1 sequence (B2ZB02 1-297): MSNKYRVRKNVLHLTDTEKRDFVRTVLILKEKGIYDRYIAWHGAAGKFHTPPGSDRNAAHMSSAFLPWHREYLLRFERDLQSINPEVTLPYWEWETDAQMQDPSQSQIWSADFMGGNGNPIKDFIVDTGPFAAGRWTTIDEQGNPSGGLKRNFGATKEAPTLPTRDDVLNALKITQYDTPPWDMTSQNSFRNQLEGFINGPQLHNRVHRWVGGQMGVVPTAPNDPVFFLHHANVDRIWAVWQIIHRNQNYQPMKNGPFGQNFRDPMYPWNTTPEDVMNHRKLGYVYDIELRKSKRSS
Experimental: TyrBm was labeled fluorescently with a RED dye (NT-647-NHS) according to the manufacturer’s protocol (NanoTemper Technologies, Munich, Germany). Non-bound dye was removed by purification of the enzyme on a Sephadex G-25 column with buffers provided in the commercial kit. […] Approximately 10 μl of sample was loaded into hydrophilic monolith NT capillaries and the measurement was performed in a NanoTemper Monolith NT.015T instrument. The emission of the red fluorescence was recorded at a focused location of the capillary. In the same location, a microscopic temperature gradient was created using an infrared laser and the fluorescence depletion was measured. According to changes in the fluorescent thermophoresis signal and the concentrations of unlabeled inhibitor, the dissociation constant values were determined by the NanoTemper analysis software.
(b) Titration of rising concentrations of
(c) Titration of rising concentrations of L-tyrosine (0-
The reactions contained constant concentration of TyrBm
(§1) (1 picture or pasted object on this page, not shown here)

mushroom tyrosinase = settings: cited from earlier work
[2] = system: Agaricus bisporus tyrosinase; settings: HQ as substrate; cited from earlier work
[3] = target: T1, TyrBm (tyrosinase from Bacillus megaterium); assay: Kinetic analysis of tyrosinase (Lineweaver-Burk plots); type: biochemical; parameters: made in house; host or cells: Escherichia coli BL21
Experimental: All measurements were performed in seven replicates.
The inhibitor concentrations were mentioned above. The inhibition kinetics module of Sigma Plot 13.0 software was used (Systat Software, Inc., Richmond, CA, USA). All measurements were performed in 5-replicates.

[4] = target: T1, TyrBm (tyrosinase from Bacillus megaterium); assay: biochemical
Experimental: Tyrosinase inhibitory activity was determined spectrophotometrically in 96-well plates with a final volume of 200 μl. First, 50 mM PBS buffer pH 7.4 and 0.01 mM CuSO4 were mixed with 6 μg ml^−1 of purified enzyme. Then, the mixture was incubated at 40 °C for 2 minutes. […] Specific activity was calculated as the ratio of the conversion rate and the total protein content as determined by the Bradford analysis method (Bio-Rad, Israel). All measurements were performed in seven replicates.

[5] = target: T1, TyrBm (tyrosinase from Bacillus megaterium)
Experimental: The formation of HBP was monitored by measuring the absorbance at 475 nm[26].
Batel Deria,§, Margarita Kanteeva,§, Mor Goldfedera, Daniel Lecinab, Victor Guallarb,c,
Noam Adird, and Ayelet Fishmana,†
presence of reducing agents measured at 475 nm.
increasing concentrations of L-dopa (0-3 mM).
as the substrate in the presence of increasing concentrations of H2O2 (0-90 mM).
reactions contained 6 µg ml-1 of purified TyrBm, 50 mM PBS buffer pH 7.4 and 0.01 mM
as §1

[6] = target: T1, TyrBm (tyrosinase from Bacillus megaterium); settings: 1 mM L-dopa
Experimental: Measurements were carried out using a Hansatech Oxygraph+ electrode (Norfolk, UK) in a reaction volume of 1000 μL.
(a) Spectrophotometric recordings measured at 475 nm. All measurements were performed in heptaplicates. (b) Oxygen consumption recordings. The inset presents the oxygen […]
measurements were performed in triplicates. The reactions contained 4 µg ml-1 of purified […]
The slopes representing the activity rate are given for each graph.
as §1

`N[C@@H](Cc1ccc(O)cc1)C(=O)O` [L-tyrosine] showed a Kd ([1]; read-out: KD) of 0.1 ± 0.03 µM.

In the case of `O=c1cccccc1O` [Tropolone], the Inhibition mode (mushroom tyrosinase) is given as “mixed”.

In the case of `Oc1ccc(O)cc1` [HQ, hydroquinone], the Km [2] is given as 250 µM, the Inhibition mode ([3]; diphenolase activity, substrate L-dopa) is given as “no inhibition; also recorded: does not inhibit” and the Inhibition mode ([3]; monophenolase activity, substrate L-tyrosine) is given as “competitive”. The Ki ([3]; substrate L-tyrosine) was 40 ± 10 µM, the “Vmax (apparent, in presence of inhibitor)” value ([3]; substrate L-tyrosine) was 9.0 µmol/min/mg and 9.0 ± 0.5 µmol/min/mg and the “kcat (in presence of inhibitor)” value ([3]; substrate L-tyrosine) was 5.3 s⁻¹. For the same molecule, the “IC50 with L-dopa higher in comparison to L-tyrosine” value (mushroom tyrosinase) was 80 fold, the Ki (mushroom tyrosinase; competitive, ref 25 Chawla et al.) was 83 µM and the IC50 (mushroom tyrosinase; monophenols) was 33.5 µM. For the same molecule, the IC50 [4] was 32 ± 2 µM, the Vmax ([5]; HQ as substrate in the presence of H2O2 (100 mM)) was 19 µmol/min/mg and the “activity of TyrBm with L-dopa and HQ higher than with L-dopa alone” value ([5]; absorbance readings at 475 nm, 1 mM L-dopa, 0.1 mM HQ) was 17%. For the same molecule, the “TyrBm activity with HQ as a sole substrate” value ([5]; several hours, without H2O2 or L-dopa, visual, vs control without enzyme) was “low activity was visually observed”, the Kd [1] was 9 ± 1 µM and the “dissociation constant higher than L-tyrosine” value [1] was 90 fold. For the same molecule, the “activity of TyrBm with L-dopa and HQ higher than with L-dopa alone” value ([6]; oxygen consumption measurements, 0.1 mM HQ) was 8% and the “effect on TyrBm activity on L-dopa” value ([6]; spectrophotometric and oxygen consumption recordings, 0.1 mM compound) was “enhances activity”.
